This is an account of results in paper PMC8296985, “A Covalent Calmodulin Inhibitor as a Tool to Study Cellular Mechanisms of K-Ras-Driven Stemness” (Frontiers in Cell and Developmental Biology, 2021).

The subject of series [1] is MDA-MB-231. Put plainly: 3D spheroid (tumorosphere) formation assay, low attachment, serum-free, alamarBlue. It is filed as cell-based. The settings on record: for IC50: Homo sapiens; for KRAS/HRAS mutant cell line DSS3 ratio: MDA-MB-231 vs Hs 578T 3D spheroid formation, 0.6–40 μM, numbers above bars Fig. 1A,B. The protocol:
(§1) 3D spheroid formation assays were performed in 96-well low-attachment, suspension culture plates (cat. no. 655185, Cellstar, Greiner Bio-One) under serum-free condition. About 1,000 (MDA-MB-231, NCI-H358, and MIA PaCa-2) or 2,500 (Hs 578T) cells per well were seeded in 50 μl of either an RPMI medium (cat. no. 52400-025, Gibco, Thermo Fisher Scientific) (MDA-MB-231, A375, and NCI-H358) or DMEM (cat. no. 41965-039, Gibco, Thermo Fisher Scientific) (Hs 578T and MIA PaCa-2), containing 0.5% MethoCult (cat. no. SF H4636, Stemcell technologies), 1x B27 (cat. no. 17504044, Gibco, Thermo Fisher Scientific), 25 ng/ml EGF (cat. no. E9644, Sigma-Aldrich), and 25 ng/ml FGF (cat. no. RP-8628, Thermo Fisher Scientific). Cells were cultured for 3 days and then treated with compounds or vehicle control (DMSO 0.1% v/v in growth medium) for another 3 days. The cells were supplemented with a fresh growth medium on the third day together with the drug treatment. For knockdown experiments, cells were seeded in 12-well plates and treated with either 50 nM scrambled siRNA (cat. no. 1022076, QIAGEN) or indicated concentrations of siRNAs. Next day, cells were collected by trypsinization and re-plated into 96-well plates for 3D spheroid suspension culture.
(§2) Spheroid formation efficiency was analyzed by an alamarBlue assay reagent (cat. no. DAL1100, Thermo Fisher Scientific). A 10% final volume of the alamarBlue reagent was added to each well of the plate and incubated for 4 h at 37°C. Then the fluorescence intensity was measured using the FLUOstar OPTIMA plate reader (BMG Labtech, Germany) with an excitation wavelength of 560 ± 5 nm and an emission wavelength of 590 ± 5 nm.
(§3) To quantitatively profile the drug sensitivity with a more robust parameter than the IC50 or EC50 values, the drug sensitivity score (DSS) analysis was employed. DSS values are essentially normalized area under the curve (AUC) measures of dose-response inhibition data ([Yadav et al., 2014]). Drug response data files (in Excel) ready for online analysis were prepared according to the example file obtained from the DSS pipeline website, called Breeze^1 ([Potdar et al., 2020]). Either raw fluorescence intensity measurements or normalized % inhibition data (for BRET assay analysis) were uploaded.
(§4) DSS3 was employed to emphasize drugs that obtain their response area over a relatively wide dose window, as compared to drugs that show increased response only at the higher end of the concentration range. After logistic fitting of the dose-response inhibition data, the area under the curve (AUC) was determined as the exact solution. A 10% minimal activity threshold (t) was set. The maximum (Cmax) and minimum (Cmin) concentrations were used for screening of the inhibitors, with Cmax = x2 and x1 concentration with minimal activity t.
On the technique in general: Resazurin is reduced to fluorescent resorufin, in cell work by metabolically active cells.

Series [2] deals with Hs 578T. The description is as above. It is filed as cell-based. The settings on record: Homo sapiens. The protocol:
as §1, §2, §3, §4

The target in series [3] is calmodulin (CaM) (Bos taurus, UniProt P62157). The experiment in a line: Fluorescence polarization assay, displacement of F-PMCA peptide from CaM. The settings on record: for kinact/KI: read-out: k2/Ki second-order rate constant. A general note: Fluorescence polarisation rises when a labelled molecule tumbles more slowly, as on binding a larger partner.
Method: Compounds were threefold-diluted in an assay buffer (20 mM Tris Cl pH 7.5, 50 mM NaCl, 1 mM CaCl2, and 0.005% Tween 20), and a complex of 100 nM CaM and 10 nM F-PMCA peptide was added. […] Then the plate was incubated overnight at 4°C, and the next day, final readings were taken after a total of 24 h incubation. The fluorescence anisotropy was calculated and plotted against the logarithm of the compound concentration and fit to the log inhibitor vs. response–variable slope (four parameters) equation in Prism (GraphPad).
The potency and selectivity of a covalent inhibitor are governed by two parameters, namely, Ki, the dissociation constant of the initial non-covalent complex, and k2, the rate of the subsequent covalent bond-forming reaction as given in the chemical equation
E and I denote a protein target and its covalent inhibitor, respectively. E ⋅ I is the initial non-covalent complex, and E – I is the final covalent complex. […] This was repeated for several inhibitor concentrations. Then, kobs was plotted against the concentration of the inhibitor, and the data were fit to a hyperbolic equation kobs=k2×[I]/Ki+[I] to obtain Ki and k2. The ratio of k2/Ki represents the second-order rate constant of the reaction of the covalent inhibitor with the target.
For series [4], the system named is NCI-H358, MIA PaCa-2, MDA-MB-231 and A375 3D spheroids. The experiment in a line: 3D spheroid growth benchmarking, DSS3, alamarBlue. It is filed as cell-based. The procedure: as §1, §2, §3, §4
Series [5] has as its system HeLa cells. Put plainly: Centrosome number / multipolar phenotype in synchronized HeLa cells expressing mCherry-CaM. It is filed as cell-based. The settings on record: 2 h; calmidazolium 20 μM, 1 50 μM, with MG132 10 μM. The protocol: To evaluate the effect of compounds on centrosome numbers during mitosis, HeLa cells were seeded in 6-well plates onto sterile coverslips and cotransfected with 0.5 μg of pmCherry-CaM and 1.5 μg pEGFP-Centrin1 plasmids using 4 μl of jetPRIME. Twenty-four hours after the transfection, cells were synchronized with 60 ng/ml of nocodazole for 16 h. After the removal of nocodazole, the cells were treated with the […] MG132 (10 μM) to block the cells in metaphase and either calmidazolium (20 μM), 1 (50 μM), or DMSO (0.5%) for 2 h. Cells were then fixed with 4% paraformaldehyde in PBS for 10 min at ambient temperature. After washing with PBS-Tween 0.05%, DNA was stained with a 1 μg/ml solution of DAPI diluted in PBS for 10 min. Coverslips were mounted on glass slides using Vectashield, and images were captured on a spinning disk confocal microscope. Images were analyzed with the ImageJ software, and the number of transfected mitotic cells with multipolar and normal bipolar phenotypes was counted (between 35 and 70 cells per test condition). The percentage multipolar vs. bipolar cells was computed to generate the plot using the Prism software.

The subject of series [6] is HRAS mutant cells (Hs 578T, T24). The experiment in a line: 2D viability assay (alamarBlue), DSS3. It is filed as cell-based. Conditions: relative to OphA; listed as Calmirasone1. The procedure:
as §3
DSS3 was employed to emphasize drugs that obtain their response area over a relatively wide dose window, as compared to drugs that show increased response only at the higher end of the concentration range. After logistic fitting of the dose-response inhibition data, the area under the curve (AUC) was determined as the exact solution. A 10% minimal activity threshold (t) was set. The maximum (Cmax) and minimum (Cmin) concentrations were used for screening of the inhibitors, with Cmax = x2 and x1 concentration with minimal activity t. […]

Where [7] appears, read: 72 h, MDA-MB-231 (K-RasG13D) 3D tumorosphere, 3 days treatment, read-out: IC50.
Setting [8] is: MDA-MB-231 3D tumorosphere, log scale, read-out: logIC50 ± SD (converted).
Setting [9] is: 72 h, Hs 578T (H-RasG12D) 3D tumorosphere, 3 days treatment, read-out: IC50.
The mark [10] stands for this setting: Hs 578T 3D tumorosphere, log scale, read-out: logIC50 ± SD (converted).

Values joined by “and” are separate entries in the source; they are usually repeats but may differ in a detail not shown here. Equal values may be shown once. Read-outs that look alike come from different tables or passages of the source. A value given as a limit tells only on which side of the number the result lay.

In the case of `CC(C)c1ccc2cc(C(F)(F)F)c(=O)c3c(N4CCCCC4)c(C=O)c(c1)c23` [Compound 1], the IC50 in series [1] (setting [7]) was 12 µM; in series [1] (setting [8]), 12 µM; in series [2] (setting [9]), 22.5 µM; in series [2] (setting [10]) it was 22.4 µM. Moreover, the “KRAS/HRAS mutant cell line DSS3 ratio” value in series [1] is on record as 4.1. The compound also gave a Kd in series [3] of 0.87 µM. This compound also registered a Ki in series [3] of 52 µM. Besides, the “affinity difference between Calmirasone1 and calmidazolium” value in series [3] (Kd 0.87 μM vs […]) was 64 fold. The “affinity for CaM relative to OphA” value in series [3] (after 24-h incubation, higher affinity than OphA) is recorded as “fourfold”. Moreover, the kinact/KI in series [3] is 2.78 M⁻¹ s⁻¹. The “DSS3 potency relative to K-RasG12C inhibitor AMG-510 in 3D spheroid assays” value in series [4] (relative to AMG-510) was about 50%. In addition, the “effect on 3D spheroid growth” value in series [4] (spheroids grown 72 h then treated 72 h) is recorded as “visibly lower activity”. Besides, the “multipolar phenotype (multiple mCherry-CaM-positive centrosomes)” value in series [5] is recorded as “significantly pronounced”. In series [6], the “lower unspecific toxic effect on HRAS mutant cells as compared to OphA” value is > 40 fold and 40–260 fold.

`CC(C)=C[C@H]1C[C@H](C)[C@]2(CC[C@]3(C)C[C@H]4[C@H](C(=O)C[C@@]4(C)O)/C(C=O)=C\C[C@H]32)O1` [OphA, Ophiobolin A, reference compound]: the IC50 was 0.3 µM in series [1] (setting [7]), 0.288 µM in series [1] (setting [8]), 1.8 µM in series [2] (setting [9]) and 1.78 µM in series [2] (setting [10]). Also, the “KRAS/HRAS mutant cell line DSS3 ratio” value in series [1] is 3.1. Further, the Ki in series [3] came out at 79 µM. In series [3], the kinact/KI is 3.89 M⁻¹ s⁻¹.

A word on the Kd: it is the concentration at which binding is half-saturated. Broadly, the Ki is a measure of affinity in units of concentration, obtained from inhibition or displacement. High values mean lower affinity, low ones higher affinity.
